Experiment in all cases: relative viability (nuclei count vs DMSO), 5 days (fraction); higher = more cells survive
Compound in assay [1]: C=CCn1c(=O)c2cnc(Nc3ccc(N4CCN(C)CC4)cc3)nc2n1-c1cccc(C(C)(C)O)n1 [Adavosertib] + COc1cc2c(Oc3ccc(NC(=O)C4(C(=O)Nc5ccc(F)cc5)CC4)cc3F)ccnc2cc1OCCCN1CCOCC1 [Foretinib] (partner 0.25 µM)
In a few lines:
(§1)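 Lung cancer cell lines were pin-tool dosed in 1536-well plates on the day after seeding, with either a lone drug or a fixed anchor-drug dose plus five library-drug doses (not always all listed) in √10 steps. Nuclei were counted on 4× images after 5 days. Relative viability is the ratio of treated-well to vehicle-well nuclei counts, with each value a median of duplicate plates.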

Compound in assay [2]: C=CCn1c(=O)c2cnc(Nc3ccc(N4CCN(C)CC4)cc3)nc2n1-c1cccc(C(C)(C)O)n1 [Adavosertib] + Nc1ncn([C@H]2C[C@H](O)[C@@H](CO)O2)c(=O)n1 [Decitabine] (partner 2 µM)
In a few lines: as §1

Compound in assay [3]: C=CCn1c(=O)c2cnc(Nc3ccc(N4CCN(C)CC4)cc3)nc2n1-c1cccc(C(C)(C)O)n1 [Adavosertib] + O=C(CCCCCCC(=O)Nc1ccccc1)NO [Vorinostat] (partner 1 µM)
In a few lines: as §1

Compound in assay [4]: COc1nc(N)nc2c1ncn2[C@@H]1O[C@H](CO)[C@@H](O)[C@@H]1O [Nelarabine] + CC1(C)CCC(c2ccc(Cl)cc2)=C(CN2CCN(c3ccc(C(=O)NS(=O)(=O)c4ccc(N[C@H](CCN5CCOCC5)CSc5ccccc5)c(S(=O)(=O)C(F)(F)F)c4)cc3)CC2)C1 [Navitoclax] (partner 0.5 µM)
In a few lines:
as §1

Results on 14 cell lines are retold here after the supplement of paper PMC10307832.

For NCI-H322M, the relative viability in assay [1] (first compound 0.01 µM) was found to be 0.886; in assay [1] (first compound 0.03162 µM), 0.978; in assay [1] (first compound 0.1 µM), 0.821; in assay [1] (first compound 0.3162 µM), 0.517; in assay [2] (first compound 0.01 µM), 0.724; in assay [2] (first compound 0.03162 µM), 0.67. Also, the relative viability in assay [2] (first compound 0.1 µM) was 0.698; in assay [2] (first compound 0.3162 µM), 0.526; in assay [3] (first compound 0.01 µM), 0.782; in assay [3] (first compound 0.03162 µM), 0.842; in assay [3] (first compound 0.1 µM), 0.722; in assay [3] (first compound 0.3162 µM) it was 0.564. Besides, the relative viability in assay [4] (first compound 0.01 µM) was determined as 1.39; in assay [4] (first compound 0.03162 µM) it was 1.35; in assay [4] (first compound 0.1 µM) it was 1.3; in assay [4] (first compound 0.3162 µM), 1.27; in assay [4] (first compound 1 µM), 1.17.

For the cell line NCI-H358, the relative viability came out at 0.764 in assay [1] (first compound 0.01 µM); 0.682 in assay [1] (first compound 0.03162 µM); 0.592 in assay [1] (first compound 0.1 µM); 0.285 in assay [1] (first compound 0.3162 µM); 0.246 in assay [2] (first compound 0.01 µM); 0.201 in assay [2] (first compound 0.03162 µM). Moreover, the relative viability in assay [2] (first compound 0.1 µM) came to 0.188; in assay [2] (first compound 0.3162 µM), 0.193; in assay [3] (first compound 0.01 µM), 0.622; in assay [3] (first compound 0.03162 µM) it was 0.597; in assay [3] (first compound 0.1 µM), 0.637; in assay [3] (first compound 0.3162 µM) it was 0.219.

In the case of NCI-H441, the relative viability in assay [1] (first compound 0.01 µM) was 1.04; in assay [1] (first compound 0.03162 µM), 0.964; in assay [1] (first compound 0.1 µM), 1.09; in assay [1] (first compound 0.3162 µM), 0.916; in assay [2] (first compound 0.01 µM), 0.29; in assay [2] (first compound 0.03162 µM), 0.266. Further, the relative viability in assay [2] (first compound 0.1 µM) amounted to 0.264; in assay [2] (first compound 0.3162 µM), 0.289; in assay [3] (first compound 0.01 µM) it was 0.848; in assay [3] (first compound 0.03162 µM), 0.829; in assay [3] (first compound 0.1 µM) it was 0.881; in assay [3] (first compound 0.3162 µM), 0.72. Further, the relative viability amounted to 1.13 in assay [4] (first compound 0.01 µM); 0.707 in assay [4] (first compound 0.03162 µM); 0.912 in assay [4] (first compound 0.1 µM); 0.5 in assay [4] (first compound 0.3162 µM); 0.49 in assay [4] (first compound 1 µM).

With NCI-H522, the relative viability was found to be 0.691 in assay [2] (first compound 0.01 µM); 0.692 in assay [2] (first compound 0.03162 µM); 0.776 in assay [2] (first compound 0.1 µM); 0.745 in assay [2] (first compound 0.3162 µM); 0.875 in assay [3] (first compound 0.01 µM); 0.968 in assay [3] (first compound 0.03162 µM). For the same cell line, the relative viability was determined as 1.02 in assay [3] (first compound 0.1 µM) and 0.871 in assay [3] (first compound 0.3162 µM).

As for NCI-H650, the relative viability in assay [1] (first compound 0.01 µM) is 1.06; in assay [1] (first compound 0.03162 µM) it was 1.01; in assay [1] (first compound 0.1 µM) it was 1.06; in assay [1] (first compound 0.3162 µM), 0.889; in assay [2] (first compound 0.01 µM), 0.352; in assay [2] (first compound 0.03162 µM) it was 0.319. In addition, the relative viability in assay [2] (first compound 0.1 µM) amounted to 0.342; in assay [2] (first compound 0.3162 µM) it was 0.286; in assay [3] (first compound 0.01 µM), 0.367; in assay [3] (first compound 0.03162 µM), 0.428; in assay [3] (first compound 0.1 µM) it was 0.443; in assay [3] (first compound 0.3162 µM), 0.333.

Consider NCI-H661, for which the relative viability in assay [1] (first compound 0.01 µM) worked out at 1.07; in assay [1] (first compound 0.03162 µM), 1.07; in assay [1] (first compound 0.1 µM), 1.12; in assay [1] (first compound 0.3162 µM), 0.839; in assay [2] (first compound 0.01 µM) it was 0.595; in assay [2] (first compound 0.03162 µM), 0.577. The relative viability in assay [2] (first compound 0.1 µM) was found to be 0.489; in assay [2] (first compound 0.3162 µM) it was 0.4; in assay [3] (first compound 0.01 µM), 0.847; in assay [3] (first compound 0.03162 µM), 0.809; in assay [3] (first compound 0.1 µM), 0.764; in assay [3] (first compound 0.3162 µM) it was 0.351.

As to NCI-H1299, the relative viability came to 1.08 in assay [1] (first compound 0.01 µM); 1.11 in assay [1] (first compound 0.03162 µM); 1.1 in assay [1] (first compound 0.1 µM); 0.437 in assay [1] (first compound 0.3162 µM); 1.09 in assay [4] (first compound 0.01 µM); 1.06 in assay [4] (first compound 0.03162 µM). For the same cell line, the figures for the relative viability in assay [4] (first compound 0.1 µM), in assay [4] (first compound 0.3162 µM) and in assay [4] (first compound 1 µM) were 1.1, 1.07 and 1.08, respectively.

In the case of NCI-H1563, the relative viability in assay [1] (first compound 0.01 µM) was 0.882; in assay [1] (first compound 0.03162 µM) it was 0.949; in assay [1] (first compound 0.1 µM), 1.05; in assay [1] (first compound 0.3162 µM), 0.931.

Regarding NCI-H1648, the relative viability in assay [2] (first compound 0.01 µM) stood at 0.491; in assay [2] (first compound 0.03162 µM), 0.527; in assay [2] (first compound 0.1 µM), 0.448; in assay [2] (first compound 0.3162 µM), 0.422; in assay [3] (first compound 0.01 µM) it was 0.498; in assay [3] (first compound 0.03162 µM), 0.407. Also, the relative viability was found to be 0.419 in assay [3] (first compound 0.1 µM) and 0.532 in assay [3] (first compound 0.3162 µM).

As to NCI-H1703, the relative viability in assay [1] (first compound 0.01 µM) stood at 0.399; in assay [1] (first compound 0.03162 µM), 0.43; in assay [1] (first compound 0.1 µM), 0.335; in assay [1] (first compound 0.3162 µM), 0.203; in assay [4] (first compound 0.01 µM) it was 1.28; in assay [4] (first compound 0.03162 µM) it was 0.936. Further, the values for the relative viability in assay [4] (first compound 0.1 µM), in assay [4] (first compound 0.3162 µM) and in assay [4] (first compound 1 µM) were 1.24, 1.18 and 1.18, respectively.

Consider NCI-H1792, for which the relative viability in assay [2] (first compound 0.01 µM) was 0.507; in assay [2] (first compound 0.03162 µM) it was 0.596; in assay [2] (first compound 0.1 µM), 0.645; in assay [2] (first compound 0.3162 µM), 0.669; in assay [4] (first compound 0.01 µM), 0.518; in assay [4] (first compound 0.1 µM) it was 0.931. Also, the relative viability in assay [4] (first compound 0.3162 µM) was determined as 0.685; in assay [4] (first compound 1 µM), 0.396.

Take NCI-H2228: the relative viability worked out at 0.837 in assay [1] (first compound 0.01 µM); 1.15 in assay [1] (first compound 0.03162 µM); 0.686 in assay [1] (first compound 0.1 µM); 0.472 in assay [1] (first compound 0.3162 µM); 0.606 in assay [3] (first compound 0.03162 µM); 0.536 in assay [3] (first compound 0.1 µM). Further, the relative viability in assay [3] (first compound 0.3162 µM) is 0.294; in assay [4] (first compound 0.01 µM) it was 1.3; in assay [4] (first compound 0.03162 µM), 1.11; in assay [4] (first compound 0.3162 µM) it was 1.33; in assay [4] (first compound 1 µM) it was 0.722.

NCI-H2342: the relative viability in assay [1] (first compound 0.01 µM) was determined as 1.14; in assay [1] (first compound 0.03162 µM), 1.18; in assay [1] (first compound 0.1 µM) it was 1.19; in assay [1] (first compound 0.3162 µM) it was 1.04; in assay [2] (first compound 0.01 µM), 0.72; in assay [2] (first compound 0.03162 µM) it was 0.768. The relative viability in assay [2] (first compound 0.1 µM) worked out at 0.755; in assay [2] (first compound 0.3162 µM) it was 0.932; in assay [3] (first compound 0.01 µM) it was 0.679; in assay [3] (first compound 0.03162 µM) it was 0.833; in assay [3] (first compound 0.1 µM), 0.741; in assay [3] (first compound 0.3162 µM), 0.864.

SW 900: the relative viability in assay [1] (first compound 0.03162 µM) came to 0.727; in assay [1] (first compound 0.1 µM), 0.853; in assay [1] (first compound 0.3162 µM), 0.907; in assay [2] (first compound 0.01 µM) it was 0.442; in assay [2] (first compound 0.03162 µM), 0.464; in assay [2] (first compound 0.1 µM) it was 0.461. The relative viability in assay [2] (first compound 0.3162 µM) amounted to 0.312; in assay [3] (first compound 0.01 µM) it was 0.445; in assay [3] (first compound 0.03162 µM) it was 0.492; in assay [3] (first compound 0.1 µM), 0.424; in assay [3] (first compound 0.3162 µM), 0.268.
